# Read-outs that look alike come from different tables or passages of the source.
# Legend:
# [1] = system: anti-lamotrigine antibody; experiment: Cross-reactivity of polyclonal antibody with lamotrigine metabolites spiked into human serum; assay type: binding; conditions: metabolite at 500 μg/mL spiked into human serum; polyclonal antisera
# Procedure: A polyclonal antisera is obtained and an assay is performed in order to determine the amount of cross-reactivity of the polyclonal antibody with lamotrigine and lamotrigine metabolites. A known amount of lamotrigine is used to react with an anti-lamotrigine antibody prepared in accordance with the present invention. The known concentration of lamotrigine is used to calculate the amount of cross-reactivity between the antibody preparation and the metabolites as follows: N-methyl (29); N-oxide (30); and N-2 gluronide (31). The percent of cross-reactivity equals 100 times the observed concentration of lamotrigine in μg/mL, which is then divided by the concentration of added metabolites in μg/mL. No cross-reactivity is observed in specimens containing those metabolites. High concentrations of these compounds are spiked into human serum and tested as samples. The metabolites are assayed and compared to control serum (no lamotrigine). Cross reactivity is calculated using the following equation: [formula]
# [2] = Solubility of 74W86 in common solvents; assay type: physicochemical; conditions: most common solvents
# [3] = cited from earlier work
# [4] = responders (>50% seizure reduction)
smiles,measurement,setting,value
C[n+]1nc(-c2cccc(Cl)c2Cl)c(N)nc1N [N-2 methyl],cross-reactivity,[1],do not have any cross-reactivity
Nc1nnc(-c2cccc(Cl)c2Cl)c(NC(=O)CCC(=O)O)n1 [74W86],solubility,[2],poor solubility in most common solvents
Nc1nc(N)[n+]([O-])nc1-c1cccc(Cl)c1Cl [N-2 oxide],cross-reactivity,[1],< 3%
"Nc1nnc(-c2cccc(Cl)c2Cl)c(N)n1 [lamotrigine, 3,5-diamino-6-(2,3-dichlorophenyl)-1,2,4-triazine]","lamotrigine concentration, range",[3]; patients with side effects,31 to 60 µmol/L
same,median lamotrigine concentration,[3]; patients with side effects,62 µmol/L
same,"lamotrigine concentration, range",[3]; [4],8 to 60 µmol/L
same,median lamotrigine concentration,[3]; [4],31 µmol/L
